Assay results: ChEMBL document CHEMBL4622937, “Design, synthesis, and biological evaluation of spiroindolines as novel inducers of oligodendrocyte progenitor cell differentiation-Use of a conformation-based hypothesis to facilitate compound design” (Bioorg Med Chem Lett, 2020)

Assay: Induction of rat oligodendrocyte progenitor cells differentiation assessed as myelin basic protein expression level
Type: functional

Row | Structure (SMILES) | EC50 [nM]
1 | O=C1c2cc(C(F)(F)F)ccc2NC12CCN(CC1CCOCC1)CC2 | 3.2
2 | FC(F)(F)c1ccc2c(c1)N(CC1CCOCC1)C1(CCN(CC3CCOCC3)CC1)C2 | 13
3 | COC1(CN2CCC3(CC2)Cc2ccc(C(F)(F)F)cc2N3C)CCOCC1 | 54
4 | FC(F)(F)c1ccc2c(c1)N(Cc1ccccc1)C1(CCN(CC3CCOCC3)CC1)C2 | 3.7
5 | CC(C)(C)OC(=O)CN1c2cc(C(F)(F)F)ccc2CC12CCN(CC1CCOCC1)CC2 | 15
6 | COCCN1CCC2(CC1)Cc1ccc(C(F)(F)F)cc1N2C | 250
7 | O=C1c2ccc(C(F)(F)F)cc2NC12CCN(CC1CCOCC1)CC2 | 54
8 | CN1c2cc(C(F)(F)F)ccc2CC12CCN(CC1(O)CCOCC1)CC2 | 5.8
9 | COCCCN1CCC2(CC1)Cc1ccc(C(F)(F)F)cc1N2C | 240

The remaining lines, values ahead:

Row | EC50 [nM] | Structure (SMILES)
10 | 10 | CN1c2cc(F)ccc2CC12CCN(CC1CCOCC1)CC2
11 | 9.3 | CN1c2ccc(C(F)(F)F)cc2C(=O)C12CCN(CC1CCOCC1)CC2
12 | 240 | FC(F)(F)c1ccc2c(c1)CC1(CCN(CC3CCOCC3)CC1)N2
13 | 4.7 | CN1c2cc(C(F)(F)F)ccc2CC12CCN(CC1CCC(F)(F)CC1)CC2
14 | 1.9 | CN1c2cc(C(F)(F)F)ccc2CC12CCN(CC1CCOCC1)CC2
15 | 7100 | CN1c2ccc(C(F)(F)F)cc2CC12CCN(CC1CCOCC1)CC2
16 | 60 | CC(=O)N1c2cc(C(F)(F)F)ccc2CC12CCN(CC1CCOCC1)CC2
17 | 700 | CN(C)C(=O)CN1c2cc(C(F)(F)F)ccc2CC12CCN(CC1CCOCC1)CC2
18 | 1.4 | CN1c2cc(C(F)(F)F)ccc2C(=O)C12CCN(CC1CCOCC1)CC2
19 | 19 | CN1c2cc(Cl)ccc2CC12CCN(CC1CCOCC1)CC2
20 | 74 | OCCN1c2cc(C(F)(F)F)ccc2CC12CCN(CC1CCOCC1)CC2
